Data as given in PubChem BioAssay (NCI).
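96-well plates; 48 h exposure; 5 concentrations. Endpoints by linear interpolation between flanking doses. Not reached: highest tested concentration assigned. TGI: concentration producing complete growth inhibition.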

Experiments:
Assay in all cases: NCI-60 cell line screen, 48 h
NCI-H522 lung = tested on: NCI-H522 lung
786-0 renal = tested on: 786-0 renal
SF-295 CNS = tested on: SF-295 CNS
A549 NSCLC = tested on: A549 NSCLC
COLO 205 colon = tested on: COLO 205 colon
NCI-H226 lung = tested on: NCI-H226 lung
NCI-H460 lung = tested on: NCI-H460 lung
MDA-MB-435 = tested on: MDA-MB-435
SK-MEL-28 melanoma = tested on: SK-MEL-28 melanoma
SK-OV-3 ovarian = tested on: SK-OV-3 ovarian
SW-620 colon = tested on: SW-620 colon
SNB-19 CNS = tested on: SNB-19 CNS
CCRF-CEM leukemia = tested on: CCRF-CEM leukemia
MCF7 breast = tested on: MCF7 breast
OVCAR-5 ovarian = tested on: OVCAR-5 ovarian
HS 578T breast = tested on: HS 578T breast
TK-10 renal = tested on: TK-10 renal
SN12C renal = tested on: SN12C renal
NCI/ADR-RES ovarian = tested on: NCI/ADR-RES ovarian
SK-MEL-5 melanoma = tested on: SK-MEL-5 melanoma
RXF 393 renal = tested on: RXF 393 renal
A498 renal = tested on: A498 renal
U251 CNS = tested on: U251 CNS
MDA-N = tested on: MDA-N
OVCAR-3 ovarian = tested on: OVCAR-3 ovarian
CAKI-1 renal = tested on: CAKI-1 renal
HL-60(TB) leukemia = tested on: HL-60(TB) leukemia
SNB-75 CNS = tested on: SNB-75 CNS
HT29 colon = tested on: HT29 colon
UACC-62 melanoma = tested on: UACC-62 melanoma
KM12 colon = tested on: KM12 colon
UACC-257 melanoma = tested on: UACC-257 melanoma
PC-3 prostate = tested on: PC-3 prostate
ACHN renal = tested on: ACHN renal
SF-268 CNS = tested on: SF-268 CNS
UO-31 renal = tested on: UO-31 renal
HOP-92 NSCLC = tested on: HOP-92 NSCLC
NCI-H23 lung = tested on: NCI-H23 lung
DU-145 prostate = tested on: DU-145 prostate
M14 melanoma = tested on: M14 melanoma
T-47D breast = tested on: T-47D breast
HCC-2998 colon = tested on: HCC-2998 colon
HCT-15 colon = tested on: HCT-15 colon
MDA-MB-231 breast = tested on: MDA-MB-231 breast
OVCAR-8 ovarian = tested on: OVCAR-8 ovarian
SK-MEL-2 melanoma = tested on: SK-MEL-2 melanoma
SF-539 CNS = tested on: SF-539 CNS
LOX IMVI melanoma = tested on: LOX IMVI melanoma
MALME-3M melanoma = tested on: MALME-3M melanoma
OVCAR-4 ovarian = tested on: OVCAR-4 ovarian
RPMI-8226 leukemia = tested on: RPMI-8226 leukemia
HCT-116 colon = tested on: HCT-116 colon
EKVX NSCLC = tested on: EKVX NSCLC
BT-549 breast = tested on: BT-549 breast
IGROV1 ovarian = tested on: IGROV1 ovarian
MOLT-4 leukemia = tested on: MOLT-4 leukemia
K-562 leukemia = tested on: K-562 leukemia
SR leukemia = tested on: SR leukemia
HOP-62 NSCLC = tested on: HOP-62 NSCLC

Measured: TGI

Cc1ccc(C)c2c1n1c(=O)n(C)c(=O)n21
not listed: MOLT-4 leukemia | K-562 leukemia | SR leukemia | HOP-62 NSCLC
> 100 µM: all other assays above

O=c1onc(Nc2ccccc2)n1-c1ccccc1
not listed: NCI-H522 lung | MDA-MB-435 | SF-268 CNS | DU-145 prostate | T-47D breast | RPMI-8226 leukemia
> 100 µM: all other assays above
